Experimental data from patent US11376264B2, “Use of bromodomain-containing protein 9 antagonists in combination with vitamin D receptor agonists in diabetes treatment” (Salk Institute for Biological Studies, priority 2017, dated 2022).
Entries after “also recorded” stand apart in the source; their conditions may differ.

Legend:
mouse islets = experiment: Isolated mouse islets cultured with IL1β ± Cal (RNA-Seq); assay type: cell-based
Protocol: Total RNA was isolated from tissue or cell pellets using the RNA mini kit (Qiagen). Sequencing libraries were prepared from 100-500 ng total RNA using the TruSeq RNA Sample Preparation Kit v2 (Illumina) according to the manufacturer's protocol. Briefly, mRNA was purified, fragmented, and used for first-, then second-strand cDNA synthesis followed by adenylation of 3′ ends. Samples were ligated to unique adapters and subjected to PCR amplification. Libraries were then validated using the 2100 BioAnalyzer (Agilent), normalized, and pooled for sequencing. RNA-Seq libraries prepared from two biological replicates for each experimental condition were sequenced on the Illumina HiSeq 2000 using bar-coded multiplexing and a 100 bp read length.
Image analysis and base calling were performed with Illumina CASAVA-1.8.2. This yielded a median of 29.9M usable reads per sample. Short read sequences were mapped to a UCSC mm9 reference sequence using the RNA-seq aligner STAR (Dobin et al., 2013). Known splice junctions from mm9 were supplied to the aligner and de novo junction discovery was also permitted. Differential gene expression analysis, statistical testing and annotation were performed using Cuffdiff 2 (Trapnell et al., 2013). Transcript expression was calculated as gene-level relative abundance in fragments per kilobase of exon model per million mapped fragments and employed correction for transcript abundance bias (Roberts et al., 2011). RNA-Seq results for genes of interest were also explored visually using the UCSC Genome Browser.
Mouse pancreatic islets were isolated as previously described (Yoshihara et al., 2010, Nat. Commun 1:127) with slight modification. Briefly, 0.5 mg/ml collagenase P (Roche REF 1213873001, diluted in HBSS buffer, GIBCO, 14170-112) was injected through the common bile duct, and the perfused pancreas dissected and incubated at 37° C. for 21 min. Digested exocrine cells and intact islets were separated via centrifugation (900×g for 15 min) over Histopaque-1077 (Sigma, H8889), and intact islets were manually selected. […]

[1] = tested on: VDR association with BAF/PBAF complex components; experiment: VDR interactome (MudPIT, Western blot) in INS1 cells expressing HA-tagged VDR; assay type: cell-based, rat; settings: for VDR interactions of key components of the PBAF complex (PBRM1, ARID2): INS1 cells expressing HA-tagged VDR; for VDR association of proteins common to the BAF and PBAF complexes: e.g. SMARCA1, SMARCA2, SMARCA4
Protocol: Immunoprecipitations were performed as described previously (He et al., 2010, Mol. Cell 38, 428-38). Briefly, cells are lysed using ice-cold lysis buffer (HEPES 20 mM pH8, EDTA 0.2 mM, NaCl 0.3 mM, NP40 0.5%, 15% glycerol) for 15 min, and after centrifuging the supernatant was collected. For HA- or Flag-tagged proteins, immunoprecipitations were performed using HA-magnetic beads (Pierce, P188836), or Flag-magnetic beads (Sigma, M8823) for 1.5 hr at 4° C. For other immunoprecipitations, primary antibodies were incubated with lysates for 2 hr followed by Protein A magnetic beads (Life Technologies, 10001D). After 3 washes with wash buffer (HEPES 10 mM pH8, EDTA 0.2 mM, NaCl 0.3 mM, NP40 0.1%, 15% glycerol), the beads were boiled with NuPage LDS sample buffer and the lysates were stored at -20° C. Samples were precipitated by methanol/chloroform. Dried pellets were dissolved in 8 M urea/100 mM TEAB, pH 8.5. […] Proteins were digested overnight at 37° C. in 2 M urea/100 mM TEAB, pH 8.5, with trypsin (Promega). Digestion was quenched with formic acid, 5% final concentration. The digested samples were analyzed on a Fusion Orbitrap tribrid mass spectrometer (Thermo). The digest was injected directly onto a 30 cm, 75 um ID column packed with BEH 1.7 um C18 resin (Waters). Samples were separated at a flow rate of 200 nl/min on a nLC 1000 (Thermo). […] Column was re-equilibrated with 20 ul of buffer A prior to the injection of sample. Peptides were eluted directly from the tip of the column and nanosprayed directly into the mass spectrometer by application of 2.5 kV voltage at the back of the column. The Orbitrap Fusion was operated in a data-dependent mode. Full MS1 scans were collected in the Orbitrap at […] resolution with a mass range of 400 to 1600 m/z and an AGC target of 5e5. The cycle time was set to 3 sec, and within this 3 sec the most abundant ions per scan were selected for CID MS/MS in the ion trap with an AGC target of 1e4 and minimum intensity of 5000. Maximum fill times were set to 50 ms and 100 ms for MS and MS/MS scans respectively. Quadrupole isolation at 1.6m/z was used, monoisotopic precursor selection was enabled and dynamic exclusion was used with exclusion duration of 5 sec. Protein and peptide identification were done with Integrated Proteomics Pipeline-IP2 (Integrated Proteomics Applications). Tandem mass spectra were extracted from raw files using RawConverter (ref1) and searched with ProLuCID (ref2) against rat UniProt database. The search space included all fully-tryptic and half-tryptic peptide candidates. Carbamidomethylation on cysteine was considered as a static modification. Acetylation (42.010565) was considered as a differential modification on Lysine and the N-terminus. […]

SMILES | IL1β-induced damage / gene expression changes in islets (mouse islets; 48 or 96 hours) | number of genes induced by IL1β and rescued (mouse islets; 96 hours) | number of genes suppressed by IL1β and rescued (mouse islets; 96 hours) | VDR interactions of key components of the PBAF complex (PBRM1, ARID2) [1] | VDR association of proteins common to the BAF and PBAF complexes [1]
C=C1/C(=C\C=C2/CCC[C@]3(C)[C@@H]([C@H](C)/C=C/[C@@H](O)C4CC4)CC[C@@H]23)C[C@@H](O)C[C@@H]1O [Cal, calcipotriol] | protected islets from IL1β-induced damage; also recorded: partially rescued | 332 genes | 169 genes | significantly increased | increased
CCn1cc(-c2cccc(C(F)(F)F)c2)c2sc(C(=N)NC3CCS(=O)(=O)CC3)cc2c1=O [iBRD9] |  |  |  | significantly increased | increased
